The text below walks through data of US11733142B2, “Antimicrobic susceptibility testing using digital microscopy” (Beckman Coulter, Inc., priority 2017, dated 2023).

In one experiment the test system is E. coli. As to the kind of experiment: Antimicrobic susceptibility testing (AST) by digital microscopy: count sum, area sum, area/count ratio. The format is cell-based. On the procedure: FIGS. 7-23 illustrate various features and steps of optimized AST method 101 (FIG. 19). In some versions, system 1 as discussed above may be used to facilitate some or all of the features provided in optimized AST method 101. Optimized AST method 101 includes performing an image analysis cycle 102 repetitively until a MIC is determined. FIG. 8 provides several exemplary digital microscopy parameters for use in optimized AST method 101. Test well 20 is embodied by a “384” style test well, having a clear viewing bottom. The volume of inoculum in test well 20 may be set to 20 microliters to reduce the amount of materials such as bulk diluents required by AST method 101 and/or minimize light artifacts and provide sampling of a consistent number of microbes from the 1:250 dilution of the 0.5 MacFarland inoculum. […] the volume of inoculum in test well 20 generally increases the light artifacts. In some instances, capturing a single vertical plane 103 at 20× objective whereby AST camera 35 is set at 0.33 microns/pixel may be sufficient for sampling the inoculum and ensuring that each individual microbe is recognizable. However, these parameters are configurable and may change as desired by the user or the underlying needs of the system. Capturing three focal sites spaced about 5 microns apart within single vertical plane 103 may also provide a sufficient number of microbes in the sample to count for use in optimized AST method 101. These three focal sites are labeled site 105, site 107, and site 109 in FIG. 8. In an exemplary version of optimized AST method 101, each focal site is approximately 700×700 microns within single vertical plane 103, rather than capturing three sites in three different vertical planes. AST camera 35, optics system 9, and computer 49 are configured to capture an image of each focal site in consecutive time periods, manipulate each of these images, and thereafter use the data derived from these manipulated images to make a MIC determination. Image analysis cycle 102 is generally depicted in FIG. 9 and comprises an image capture step 111, an image enhancement step 113, an image segmentation step 115, and an object counting step 117. Optimized AST method 101 includes performing image analysis cycle 102 repetitively until a MIC is determined. Image analysis cycle 102 utilizes one or more instances of computer 49 and the various elements thereof to perform image capture step 111, image enhancement step 113, image segmentation step 115, and object counting step 117, as well as any sub steps provided therein. Once image segmentation step 115 generates segmented image 143, image segmentation step 115 proceeds to object counting step 117. In object counting step 117, the background and foreground pixels are considered to derive information regarding the number of microbes in the sample, the area occupied by the microbes in the sample, and the ratio between the number of microbes and the area occupied by the microbes. In some versions of object counting step 117, the actual microbe count is compared with an average microbe count to determine if an error occurred within the image capture process. The comparison may incorporate a standard deviation with the average microbe count to generalize the microbe comparison. Object counting step 117 may be configured to derive information regarding the ratio between the total area occupied by all of the microbes in the image and the total count of microbes. This information may be useful by determining whether the microbes are undergoing elongation over time. Elongation is a precursor to death and indicates the concentration of the antimicrobic dilution is negatively affecting the microbes. More specifically, elongation may occur when microbes such as bacteria encounter an effective amount of antibiotic drugs. Once object counting step 117 derives the desired information from segmented image 143, image analysis cycle 102 terminates. […]

Experiment [1] has as its system gram negative bacteria carrying the Klebsiella pneumonia carbapenemase (KPC) resistance mechanism. Briefly: Growth pattern combined with fluorogenic pH test (MEU) to detect resistance and predict MIC. Format: cell-based. The conditions noted are these: predicted if pH changes in Meropenem well within 1-2 hours and the growth pattern is identified. The text has this: The growth pattern information derived from optics system 9 may also be combined with a fluorogenic test measuring a change in pH to detect some mechanisms of resistance in the microbes being tested. As an example, one of the fluorogenic test substrates could be an antimicrobial agent. Degradation of the antimicrobial agent leads to a change in the pH of the medium within two hours after inoculation, and the pH change can be detected with an indicator that changes fluoresces with changes in pH. Combining the information on the growth patterns (cell count, area, and area/count), as described above, along with an indication that the antimicrobial agent has degraded provides a way to quickly ascertain if the microbe is resistant and helps to determine the MIC of the organism.
For example, the antibiotic Meropenem is enzymatically degraded by microbes such as gram negative bacteria carrying the Klebsiella pneumonia carbapenemase (KPC) resistance mechanism. If Meropenem is degraded, the medium drops in pH. The fluorogenic pH indicator, MEU (methyllumbeliferone) will change (decrease) in fluorescence with that change. This change occurs within 1 to 2 hours. […]

As a reminder, the MIC is the smallest concentration in the dilution series that meets the test's criterion for growth inhibition.

Turning to `CO/N=C(\C(=O)N[C@@H]1C(=O)N2C(C(=O)O)=C(CSc3nc(=O)c(=O)[nH]n3C)CS[C@H]12)c1csc(N)n1` [Cax], in the experiment with E. coli (E. coli sample, Cax 0.12 dilution compared with Growth sample (FIG. 20A)), the “effect on bacteria count” value is reported as “no effect”. The minimal inhibitory concentration (MIC) is 0.25 µg/mL with E. coli (E. coli sample, from count sum data (FIG. 20A)) and 0.25 µg/mL in the experiment on E. coli (E. coli, from area/count ratio data, elongation spike (FIG. 20C)). The “area/count ratio (elongation spike)” value in the experiment with E. coli (E. coli, Cax 0.25 and higher dilutions (FIG. 20C), No Growth line approximately 4.0) is listed as “above 8.0”. Also, the “minimum amount of antibiotic to have the desired effect on the area occupied by the bacteria” value with E. coli (E. coli, from area sum data (FIG. 20B)) is on record as 0.25.
Regarding `CO/N=C(\C(=O)N[C@@H]1C(=O)N2C(C(=O)[O-])=C(C[N+]3(C)CCCC3)CS[C@H]12)c1csc(N)n1` [Cefepime], the MIC with E. coli (E. coli sample, bacteria count data at around the 200-minute mark (FIG. 21)) is 0.06 µg/mL; with E. coli (E. coli sample, ratio data at around the 120-minute mark (FIG. 22)), 0.06 µg/mL.
In the case of `CC1(C)S[C@@H]2[C@H](NC(=O)[C@H](N)c3ccccc3)C(=O)N2[C@H]1C(=O)O` [ampicillin], the “growth morphology after exposure” value in the experiment with E. coli (E. coli exposed to a dilution of ampicillin (FIG. 17) vs free from ampicillin (FIG. 18)) is “abnormal growth in the form of elongation”.
`C[C@@H](O)[C@H]1C(=O)N2C(C(=O)O)=C(S[C@@H]3CN[C@H](C(=O)N(C)C)C3)[C@H](C)[C@H]12` [Meropenem]: the MIC result in experiment [1] is “greater than 1 mcg/ml”.
